Experimental findings from patent publication US9241951B2, “Of gastrointestinal health, immunity and performance by dietary intervention” (BIOATLANTIS LTD, priority 2009, dated 2016) are described below.

Common to all, as to type: in vivo, pig
Experiment [1] concerns IL-1α. Description: Cytokine gene expression after ex-vivo LPS tissue challenge of ileum and colon, Example 5. The following applies: ileum, ex-vivo LPS challenge (10 μg/ml, 90 minutes). The source says:
(§1) 21 pigs with an initial weight of 17.9±2.2 Kg were assigned to one of the 3 dietary treatments: (T1) control; (T2) basal diet+300 ppm LAM; (T3) basal diet+600 ppm LAM. Experimental feeding continued for 21 days ad libitum. Diets were formulated to have similar digestible energy (DE) (14.4 MJ/Kg) and ileal digestible lysine (12.5 g/Kg).
(§2) Ileal and colonic tissues were sampled from the same location as described for digesta samples. Excised tissues were emptied by dissecting them along the mesentery and rinsing them using sterile phosphate buffered saline (PBS) (Oxoid). Tissue sections 1 cm^3, which had been stripped of the overlying smooth muscle were cut from each tissue. Two sections from each tissue were placed in 1 ml of Dulbecco's Modified Eagle's Medium (DMEM) (Gibco), one in the presence of bacterial lipopolysaccharide (LPS) (Sigma Aldrich) at a concentration of 10 μg/ml. The other tissue sample was used as a control and incubated in sterile DMEM in the absence of LPS. Both challenged and unchallenged tissues were incubated at 37° C. for 90 minutes before being removed, blotted dry and weighed. Approximately 1-2 g of porcine ileum and colon tissues were cut into small pieces and collected in 15 ml of RNAlater® (Applied Biosystems, Foster City, Calif.). RNAlater® was removed before storing the samples at −80° C. until used for RNA extraction.
(§3) Tissue samples for RNA extraction were removed from −86° C. and homogenised. 500 μl of lysis solution/2-ME was added to each sample and these were mechanically disrupted using one 5 mm stainless steel bead per sample. These were then placed in a Tissue Lyser (Qiagen) and lysates were homogenised for 3 mins and transferred to a GenElute Filtration Column (Sigma Aldrich) and RNA was extracted. 1 µg of total RNA was used for cDNA synthesis using oligo(dT)20 primer in a final reaction volume of 20 μl with Superscript™ III First-Strand synthesis system for reverse transcriptase-polymerase chain reaction (RT-PCR) (Invitrogen Life Technologies, Carlsbad, Calif.). At the last step of cDNA synthesis, treatment with E. coli RNase H (Invitrogen Corp.) was performed to digest the remaining RNA/mRNA template, resulting in the production of the single-stranded cDNA template for subsequent qRT-PCR reactions.
(§4) All porcine primers for the cytokine genes interferon gamma (IFN-γ), interleukin-1α (IL-1α), IL-6, IL-8, IL-10, IL-17, tumour necrosis factor (TNF-α), the mucin genes (MUCs 1, 2, 4, 5AC, 12, 13 and 20) and three reference genes, β-actin (ACTB), Glyceraldehyde-3-phosphate dehydrogenase (GAPDH) and Peptidylprolyl isomerase A (PPIA), were designed using Primer Express™ (PE Applied Biosystems, Foster City, Calif.) and synthesised by MWG Biotech (Milton Keynes, UK). These reference genes were previously validated for use in porcine tissue and qPCR was then carried out on the cDNA using the ABI PRISM 7900HT Fast sequence detection system for 96-well plates (Applied Biosystems, Foster City, Calif.). All samples were prepared in duplicate using SYBR Green Fast PCR Master Mix (Applied Biosystems, Foster City, Calif.), cDNA as template and specific primers for the genes selected. For each reaction 5 μl cDNA, 1.2 μl (forward and reverse primer mix, 5 μM), 10 μl Fast SYBR Green PCR Master Mix (PE Applied Biosystems, Foster City, Calif.) was added and made up to a final volume of 20 μl. The two step PCR program was as follows: 95° C. for 10 minutes for 1 cycle followed by 95° C. for 15 seconds and 60° C. for 1 minute for 40 cycles. The raw Ct values for the reference genes were converted to relative quantities using the formula Q=E ^ΔCt where E is the PCR efficiency of the assay and ^ΔCt is the value calculated for the difference between the lowest Ct value for each gene minus the Ct value of the sample in question. The relative quantities of the endogenous controls were then analysed for stability in geNorm (Vandesompele et al., 2002). […]

For experiment [2], the system named is IL-10. The description is as above. The settings on record: ileum, ex-vivo LPS challenge (10 μg/ml, 90 minutes).
Excerpt: as §1, §2, §3, §4

The test system of experiment [3] is IL-6. Described as above.
Excerpt: as §1, §2, §3, §4

Experiment [4] concerns IL-17. The experiment is described as above. The following applies: ileum, ex-vivo LPS challenge (10 μg/ml, 90 minutes).
Excerpt: as §1, §2, §3, §4

For experiment [5], the system named is TNF-α. The experiment is described as above. The settings on record: ileum, ex-vivo LPS challenge (10 μg/ml, 90 minutes).
Excerpt: as §1, §2, §3, §4

The test system of experiment [6] is IL-8. Described as above.
Excerpt: as §1, §2, §3, §4

Experiment [7] concerns IFN-γ. The description is as above. The settings on record: ileum, ex-vivo LPS challenge (10 μg/ml, 90 minutes).
Excerpt: as §1, §2, §3, §4

In experiment [8] the test system is MUC1. Kind of experiment: Mucin gene expression in ileum and colon (qPCR), Example 5. The settings on record: colon; LAM supplementation. The protocol: as §1
Ileal and colonic tissues was stabilised in RNAlater® solution and stored overnight at 4° C. The following day, RNAlater® was removed and samples were stored at −86° C. prior to RNA extraction.
as §3
All porcine primers for the cytokine genes interferon gamma (IFN-γ), interleukin-1α (IL-1α), IL-6, IL-8, IL-10, IL-17, tumour necrosis factor (TNF-α), the mucin genes (MUCs 1, 2, 4, 5AC, 12, 13 and 20) and three reference genes, β-actin (ACTB), Glyceraldehyde-3-phosphate dehydrogenase (GAPDH) and Peptidylprolyl isomerase A (PPIA), were designed using Primer Express™ (PE Applied Biosystems, Foster City, Calif.) and synthesised by MWG Biotech (Milton Keynes, UK). These reference genes were previously validated for use in porcine tissue and qPCR was then carried out on the cDNA using the ABI PRISM 7900HT Fast sequence detection system for 96-well plates (Applied Biosystems, Foster City, Calif.). All samples were prepared in duplicate using SYBR Green Fast PCR Master Mix (Applied Biosystems, Foster City, Calif.), cDNA as template and specific primers for the genes selected. For each reaction 5 μl cDNA, 1.2 μl (forward and reverse primer mix, 5 μM), 10 μl Fast SYBR Green PCR Master Mix (PE Applied Biosystems, Foster City, Calif.) was added and made up to a final volume of 20 μl. The two step PCR program was as follows: 95° C. for 10 minutes for 1 cycle followed by 95° C. for 15 seconds and 60° C. for 1 minute for 40 cycles. The raw Ct values for the reference genes were converted to relative quantities using the formula Q=E ^ΔCt where E is the PCR efficiency of the assay and ^ΔCt is the value calculated for the difference between the lowest Ct value for each gene minus the Ct value of the sample in question. The relative quantities of the endogenous controls were then analysed for stability in geNorm (Vandesompele et al., 2002). The stability ‘M’ value generated by the geNorm application for the selected endogenous controls (ACTB, GAPDH and PPIA) indicated their suitability as endogenous controls for these intestinal samples. The geometric mean of the relative quantities for ACTB, GAPDH and PPIA (normalisation factor) was then calculated using geNorm. The relative quantities of each target gene were divided by the normalisation factor (obtained in geNorm) for that sample to give the final normalised relative expression.

[9] abbreviates: ileum, ex-vivo LPS challenge (10 μg/ml, 90 minutes).

laminarin: the IL-1α gene expression result in experiment [1] is “no effect”. The IL-10 gene expression entry in experiment [2] is “no effect”. The IL-6 expression result in experiment [3] (colon, LPS-challenged tissue, LAM 300 ppm) was “increase”. Moreover, in experiment [3] (setting [9]), the IL-6 gene expression entry is recorded as “no effect”. Further, the IL-17 gene expression entry in experiment [4] is “no effect”. In experiment [5], the TNF-α gene expression entry was “no effect”. The IL-8 gene expression result in experiment [6] (colon, LPS-challenged tissue, increasing LAM) is recorded as “linear increase”; in experiment [6] (setting [9]), “no effect”. Further, in experiment [7], the IFN-γ gene expression entry is listed as “no effect”. Further, the MUC1 expression entry in experiment [8] is “no effect”.
